From patent US5990146A, “Benzimidazoles for inhibiting protein tyrosine kinase mediated cellular proliferation” (Warner-Lambert Company, priority 1998, dated 1999) come the findings set out here.

Structures are written as SMILES. Counter-ions that a name gives are not always drawn. Bounds are passed on as bounds.

For orientation: IC50 means the midpoint of a concentration-inhibition curve. Read a high IC50 as a need for much substance.

Type in all cases: biochemical
Test [1] has as its target T1, FGF receptor tyrosine kinase (human FGF-1 (flg)) (Homo sapiens, UniProt P11362).
T1 construct: PCR primers are designed to amplify a fragment of DNA that codes for the intracellular tyrosine kinase domain; made in house; host or cells: Sf9 insect cells (baculovirus), cell lysate
Nature of the test: FGFr tyrosine kinase assay (poly glutamate-tyrosine phosphorylation). To be noted: Table 1; 10 minutes at 25° C. Here is the method:
Platelet Derived Growth Factor Receptor (PDGFr) and Fibroblast Growth Factor Receptor (FGFr) Full length cDNAs for the mouse PDGF-β and human FGF-1 (flg) receptor tyrosine kinases were obtained from J. Escobedo and are prepared as described in J. Biol. Chem., 262: 1482-1487 (1991). PCR primers are designed to amplify a fragment of DNA that codes for the intracellular tyrosine kinase domain. The fragment is […] into a baculovirus vector, cotransfected with AcMNPV DNA, and the recombinant virus isolated. SF9 insect cells are infected with the virus to overexpress the protein, and the cell lysate is used for the […] and FGFr The assay is performed in 96-well plates (100 μL/incubation/well), and conditions are optimized to measure the incorporation of ^32 p from [γ^32 P]-ATP into a glutamate-tyrosine copolymer substrate. […] The reaction is terminated by the addition of 100 μL of 30% trichloroacetic acid (TCA) containing 20 mM sodium pyrophosphate and precipitation of material onto glass fiber filter mats (Wallac). Filters are washed 3 times with 15% TCA containing 100 mM sodium pyrophosphate and the radioactivity retained on the filters counted in a Wallac 1250 Betaplate reader. Nonspecific activity is defined as radioactivity retained on the filters following incubation of samples with buffer alone (no enzyme). Specific enzymatic activity is defined as total activity (enzyme plus buffer) minus nonspecific activity.

For a further test, the target named is T2, c-Src (Homo sapiens, UniProt P12931).
T2 construct: made in house; host or cells: baculovirus infected insect cells
T2 sequence (P12931 whole entry, species assumed): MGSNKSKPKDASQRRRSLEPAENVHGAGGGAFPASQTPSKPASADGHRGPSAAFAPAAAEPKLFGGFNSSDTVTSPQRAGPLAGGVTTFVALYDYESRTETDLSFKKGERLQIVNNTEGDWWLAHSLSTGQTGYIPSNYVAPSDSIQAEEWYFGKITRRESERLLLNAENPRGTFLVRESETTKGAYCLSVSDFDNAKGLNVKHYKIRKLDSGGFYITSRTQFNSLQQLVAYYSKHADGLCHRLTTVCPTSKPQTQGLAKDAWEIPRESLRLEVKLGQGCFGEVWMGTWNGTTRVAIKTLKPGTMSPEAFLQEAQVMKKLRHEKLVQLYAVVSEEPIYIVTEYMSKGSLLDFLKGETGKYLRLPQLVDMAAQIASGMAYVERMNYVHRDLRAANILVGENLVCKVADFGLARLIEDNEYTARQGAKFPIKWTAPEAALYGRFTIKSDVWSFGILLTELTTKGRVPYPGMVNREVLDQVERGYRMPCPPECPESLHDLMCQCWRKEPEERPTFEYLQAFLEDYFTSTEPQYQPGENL
Nature of the test: c-Src kinase assay. The following applies: Table 1; 5 μM ATP, room temperature, 10 minutes. How it is done: c-Src kinase is purified from baculovirus infected insect cell lysates using an antipeptide monoclonal antibody directed against the N-terminal 2-17 amino acids as described previously by Fry, et al, Anticancer Drug Design. 9: 331-351 (1994). […] At the end of the lysate incubation, the beads are rinsed 3 times in lysis buffer, resuspended in lysis buffer containing 10% glycerol, and frozen. These latex beads are thawed, rinsed 3 times in assay buffer which is comprised of 40 mM tris pH 7.5, 5 mM magnesium chloride, and suspended in the same buffer. […] The reaction is started at room temperature by addition of the ATP and quenched 10 minutes later by the addition of 125 μL of 30% TCA, 0.1 M sodium pyrophosphate for 15 minutes on ice. The plate is then filtered and the wells washed with two 250-μL aliquots of 15% TCA, 0.1 M pyrophosphate. The filters are punched, counted in a liquid scintillation counter, and the data examined for inhibitory activity in comparison to a known inhibitor such as erbstatin. The method is described more fully in J. Med. Chem., 37: 598-609 (1994).

For another test, the target named is T3, insulin receptor (INSr) (Homo sapiens, UniProt P06213).
T3 construct: An assay using the intracellular kinase domains of insulin receptor (INSr) is performed
T3 sequence (P06213 1023-1298 limits assumed, species assumed): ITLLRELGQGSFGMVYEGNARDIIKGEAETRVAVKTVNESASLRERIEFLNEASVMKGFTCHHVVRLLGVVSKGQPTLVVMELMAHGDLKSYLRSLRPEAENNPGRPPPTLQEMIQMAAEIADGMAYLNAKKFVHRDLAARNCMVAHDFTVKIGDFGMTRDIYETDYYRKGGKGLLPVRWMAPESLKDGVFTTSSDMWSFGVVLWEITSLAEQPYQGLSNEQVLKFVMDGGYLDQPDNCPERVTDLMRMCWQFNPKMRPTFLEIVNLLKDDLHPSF
Nature of the test: Insulin receptor kinase assay. To be noted: Table 1; as for EGF receptor with 10 mM manganese chloride.

Test [2] deals with T4, PDGF receptor tyrosine kinase (mouse PDGF-β) (Mus musculus, UniProt P05622).
T4 construct: PCR primers are designed to amplify a fragment of DNA that codes for the intracellular tyrosine kinase domain; made in house; host or cells: Sf9 insect cells (baculovirus), cell lysate
T4 sequence (P05622 599-961 limits assumed): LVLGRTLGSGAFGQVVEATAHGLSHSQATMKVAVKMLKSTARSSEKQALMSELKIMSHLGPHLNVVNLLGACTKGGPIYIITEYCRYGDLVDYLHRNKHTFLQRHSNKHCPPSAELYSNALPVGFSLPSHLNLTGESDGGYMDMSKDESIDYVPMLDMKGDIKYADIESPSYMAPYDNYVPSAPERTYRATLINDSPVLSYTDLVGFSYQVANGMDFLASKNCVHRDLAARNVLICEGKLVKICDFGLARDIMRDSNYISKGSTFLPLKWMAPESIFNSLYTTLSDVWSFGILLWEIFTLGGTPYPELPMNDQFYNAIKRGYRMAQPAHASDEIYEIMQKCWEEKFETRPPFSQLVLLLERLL
Briefly: PDGFr tyrosine kinase assay (poly glutamate-tyrosine phosphorylation). The following applies: Table 1; 10 minutes at 25° C. Here is the method:
Platelet Derived Growth Factor Receptor (PDGFr) and Fibroblast Growth Factor Receptor (FGFr)
Full length cDNAs for the mouse PDGF-β and human FGF-1 (flg) receptor tyrosine kinases were obtained from J. Escobedo and are prepared as described in J. Biol. Chem., 262: 1482-1487 (1991). PCR primers are designed to amplify a fragment of DNA that codes for the intracellular tyrosine kinase domain. The fragment is melded into a baculovirus vector, cotransfected with AcMNPV DNA, and the recombinant virus isolated. SF9 insect cells are infected with the virus to overexpress the protein, and the cell lysate is used for the assay.
The assay is performed in 96-well plates (100 μL/incubation/well), and conditions are optimized to measure the incorporation of ^32 p from [γ^32 P]-ATP into a glutamate-tyrosine copolymer substrate. Briefly, to each well is added 82.5 μL of incubation buffer containing 25 mM Hepes (pH 7.0), 150 mM NaCl, 0.1% Triton X-100, 0.2 mM PMSF, 0.2 mM sodium vanadate, 10 mM manganese chloride, and 750 μg/mL of poly (4:1) glutamate-tyrosine followed by 2.5 μL of inhibitor and 5 μL of enzyme lysate (7.5 μg/μL FGFR-TK or 6.0 μg/μL PDGFR-TK) to initiate the reaction. Following a 10 minute incubation at 25° C., 10 μL of [γ^32 P]-ATP (0.4 μCi plus 50 μM ATP) is added to each well and samples are incubated for an additional 10 minutes at 25° C. The reaction is terminated by the addition of 100 μL of 30% trichloroacetic acid (TCA) containing 20 mM sodium pyrophosphate and precipitation of material onto glass fiber filter mats (Wallac). Filters are washed 3 times with 15% TCA containing 100 mM sodium pyrophosphate and the radioactivity retained on the filters counted in a Wallac 1250 Betaplate reader. Nonspecific activity is defined as radioactivity retained on the filters following incubation of samples with buffer alone (no enzyme). Specific enzymatic activity is defined as total activity (enzyme plus buffer) minus nonspecific activity.

T1 sequence (P11362 478-767 limits assumed): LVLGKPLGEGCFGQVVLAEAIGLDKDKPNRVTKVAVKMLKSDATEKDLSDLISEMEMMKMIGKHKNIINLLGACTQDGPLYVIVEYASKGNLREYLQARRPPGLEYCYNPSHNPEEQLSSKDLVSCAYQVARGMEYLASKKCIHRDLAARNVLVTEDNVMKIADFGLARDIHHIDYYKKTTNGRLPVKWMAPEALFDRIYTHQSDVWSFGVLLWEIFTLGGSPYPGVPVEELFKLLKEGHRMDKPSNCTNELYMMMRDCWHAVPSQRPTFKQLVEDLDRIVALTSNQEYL

In the case of `COc1cc2ncn(-c3ccccc3)c2cc1OC` [Example 46, 5,6-Dimethoxy-1-phenylbenzimidazole Hydrochloride], the values for the concentration for half-maximal inhibition (IC50) (in test [1]; against c-Src; against insulin receptor (INSr)) were 25 µM, 40 µM and above 50 µM, respectively.
In the case of `CCCOc1ccc2c(c1)ncn2-c1ccccc1` [Example 29, 1-Phenyl-5-propoxybenzimidazole hydrochloride], the IC50 in test [1] was 35 µM; against c-Src it was above 50 µM; in test [2], 0.3 µM; against insulin receptor (INSr), above 50 µM.
In the case of `CCOc1ccc2c(c1)ncn2-c1ccccc1` [Example 28, 5-Ethoxy-1-phenylbenzimidazole Hydrochloride], the IC50 in test [1] is 26 µM; in test [2], 0.2 µM; on insulin receptor (INSr), above 50 µM.
Take `COC(=O)c1cc2c(cc1OC)ncn2-c1ccccc1` [Example 51, Methyl 5-methoxy-1-phenylbenzimidazole-6-carboxylate Hydrochloride]: the IC50 is 50 µM in test [1], 33 µM against c-Src, 0.9 µM in test [2] and above 50 µM at insulin receptor (INSr).
As for `CCOc1ccc2ncn(-c3ccccc3)c2c1` [Example 44, 6-Ethoxy-1-phenylbenzimidazole], the IC50 in test [1] is above 50 µM; in test [2] it was 9.6 µM.
For the molecule `c1ccc(-n2cnc3cc(OCC4CO4)ccc32)cc1` (racemic) [Example 34, 5-(2,3-Epoxypropoxy)-1-phenylbenzimidazole], in test [2], the IC50 was 0.3 µM.
Consider `CCC(=O)Nc1ccc2c(c1)ncn2-c1ccccc1` [Example 24, 5-Propionamido-1-phenylbenzimidazole Hydrochloride], for which the half-inhibitory concentration (IC50) in test [1] was 41 µM; against c-Src it was above 50 µM; in test [2] it was 2.4 µM; on insulin receptor (INSr), above 50 µM.
Turning to `COc1ccc2c(ncn2-c2ccccc2)c1OC` [Example 60, 4,5-Dimethoxy-1-phenylbenzimidazole Hydrochloride], the IC50 at c-Src was above 50 µM.
As to `O=Cc1ccc(-n2cnc3ccccc32)cc1` [Example 9, 1-(4-Formylphenyl)benzimidazole], the IC50 is above 50 µM at c-Src and 13.5 µM in test [2].
On to `CCCCOc1ccc2c(c1)ncn2-c1ccccc1` [Example 31, 5-Butoxy-1-phenylbenzimidazole Hydrochloride], for which the IC50 at insulin receptor (INSr) is above 50 µM.
`COc1cc2ncn(-c3ccccc3)c2cc1C=O` [Example 54, 5-Methoxy-1-phenylbenzimidazole-6-carboxaldehyde Hydrochloride]: the IC50 in test [2] is 1.1 µM; at insulin receptor (INSr), above 50 µM.
Take `O=C(O)c1cc2c(cc1O)ncn2-c1ccccc1` [Example 52, 5-Hydroxy-1-phenylbenzimidazole-6-carboxylic acid Hydrobromide]: the IC50 in test [1] came out at 22 µM.
`COc1cc2ncn(-c3ccccc3)c2cc1C` [Example 49, 5-Methoxy-6-methyl-1-phenylbenzimidazole Hydrochloride] displayed a half-maximal inhibitory concentration (IC50) against insulin receptor (INSr) above 50 µM.
In the case of `COc1ccc2c(c1)ncn2-c1ccsc1` [Example 56, 5-Methoxy-1-(3-thienyl)benzimidazole Hydrochloride], the values for the IC50 (in test [1]; at c-Src; in test [2]) were 6.5 µM, above 50 µM and 0.7 µM, respectively.
Regarding `OCC(O)COc1ccc2c(c1)ncn2-c1ccccc1` (stereo not shown) [Example 33, 5-(2,3-Dihydroxypropoxy)-1-phenylbenzimidazole Hydrochloride], the IC50 was 15 µM in test [1] and 0.3 µM in test [2].
Consider `Oc1cc2ncn(-c3ccccc3)c2cc1O` [Example 47, 5,6-Dihydroxy-1-phenylbenzimidazole Hydrochloride], for which the results for the IC50 (in test [1]; in test [2]; against insulin receptor (INSr)) were 11 µM, 2.3 µM and above 50 µM, respectively.
As to `c1ccc(-n2cnc3cc4c(cc32)OCO4)cc1` [Example 48, 5,6-Methylenedioxy-1-phenylbenzimidazole Hydrochloride], the IC50 is 27 µM in test [1] and above 50 µM on insulin receptor (INSr).
As to `Clc1ccc2c(c1)ncn2-c1ccccc1` [Example 15, 5-Chloro-1-phenylbenzimidazole], the half-maximal inhibitory concentration (IC50) in test [1] amounted to 51 µM; in test [2], 4 µM.
`COc1ccc(-n2cnc3ccccc32)cc1` [Example 5, 1-(4-Methoxyphenyl)benzimidazole Hydrochloride]: the results for the IC50 (on c-Src; in test [2]; against insulin receptor (INSr)) were above 50 µM, 12 µM and above 50 µM, respectively.
Turning to `Clc1ccc2ncn(-c3ccccc3)c2c1` [Example 42, 6-Chloro-1-phenylbenzimidazole], the IC50 in test [2] came out at 5.4 µM.
In the case of `CC(=O)c1ccc2c(c1)ncn2-c1ccccc1` [Example 20, 5-Acetyl-1-phenylbenzimidazole], the IC50 is 14 µM in test [1] and 0.9 µM in test [2].
Molecule `Cc1cc2c(cc1O)ncn2-c1ccccc1` [Example 50, 5-Hydroxy-6-methyl-1-phenylbenzimidazole Hydrochloride] gave an IC50 at insulin receptor (INSr) above 50 µM.
In test [1], `Oc1ccc2c(ncn2-c2ccccc2)c1O` [Example 61, 4,5-Dihydroxy-1-phenylbenzimidazole Hydrochloride] returned an IC50 of 1.9 µM.
On to `CC(C)Oc1ccc2c(c1)ncn2-c1ccccc1` [Example 30, 5-Isopropoxy-1-phenylbenzimidazole Hydrochloride], for which the IC50 in test [2] is below 50 µM; against insulin receptor (INSr) it was above 50 µM.
On to `COc1ccc2c(ncn2-c2ccccc2)c1O` [Example 63, 4-Hydroxy-5-methoxy-1-phenylbenzimidazole Hydrochloride], for which the IC50 is 40 µM at c-Src and below 50 µM in test [2].
Take `COc1c(O)ccc2c1ncn2-c1ccccc1` [Example 62, 5-Hydroxy-4-methoxy-1-phenylbenzimidazole Hydrochloride]: the 50% inhibitory concentration (IC50) in test [1] and in test [2] was 50 µM in each case.
With `CN(C)CCCCOc1ccc2c(c1)ncn2-c1ccccc1` [Example 58, 5-[4-(N,N-Dimethylamino)butoxy]-1-phenylbenzimidazole Dihydrochloride], the half-inhibitory concentration (IC50) in test [1] amounted to 6 µM; at c-Src it was 50 µM; in test [2] it was 0.2 µM.
The like results for `OCCCCOc1ccc2c(c1)ncn2-c1ccccc1` [Example 57, 5-(4-Hydroxybutoxy)-1-phenylbenzimidazole Hydrochloride] were, in that order, 25 µM, above 50 µM and 0.5 µM.
In the case of `C=CC(=O)Nc1ccc2c(c1)ncn2-c1ccccc1` [Example 25, 5-Acrylamido-1-phenylbenzimidazole], the IC50 in test [1] was 37 µM; against c-Src, above 50 µM; in test [2] it was 5.3 µM.
